Test results as given in patent publication US5929236A, “2-substituted morpholine and thiomorpholine derivatives as GABA-B antagonists” (Schering Corporation, priority 1995, dated 1999).

Tests used:
GABAB receptors = target: T1, GABAB receptors (Rattus norvegicus, UniProt Q9Z0U4); assay: GABAB Receptor Binding Assay ([3H]GABA, rat brain synaptosomes)
T1 construct: Rat brain synaptosomes are used as a source of GABAB receptors; from tissue; host or cells: rat brain synaptosomes
Procedure: GABAB Receptor Binding Assay
The percentage inhibition of GABA binding to GABAB receptors is measured by tritiated GABA ([^3 H]GABA) determination of the degree of binding by scintillation counting. Rat brain synaptosomes are used as a source of GABAB receptors. An incubation medium is prepared from the following: 20 μg/mL of the compound to be tested as a solution in 1% DMSO/water; 5 nM [^3 H]GABA; 50 mM Tris buffer (pH 7.5); and 2.5 mM CaCl2. The medium also contains 40 μM isoguvacine to selectively block binding to GABAA receptors. The synaptosome (200 μg/mL) is added to the incubation medium and incubated for 30 minutes at 20° C. The incubation is terminated by filtration and counted to determine the percentage inhibition of [^3 H]-GABA binding. The results are reported as IC50 values for those compounds inhibiting [^3 H]-GABA binding by >50%.

[1] = target: prejunctional GABAB receptors (Cavia porcellus, UniProt A0A286X9P6); assay: In Vitro Assay (guinea pig trachea, reversal of baclofen inhibition of EFS-induced contractions); assay type: cell-based, guinea pig (male Hartley); settings: 30 μmol/L baclofen; for IC30: guinea pig trachea
prejunctional GABAB receptors, sequence (A0A286X9P6 30-844): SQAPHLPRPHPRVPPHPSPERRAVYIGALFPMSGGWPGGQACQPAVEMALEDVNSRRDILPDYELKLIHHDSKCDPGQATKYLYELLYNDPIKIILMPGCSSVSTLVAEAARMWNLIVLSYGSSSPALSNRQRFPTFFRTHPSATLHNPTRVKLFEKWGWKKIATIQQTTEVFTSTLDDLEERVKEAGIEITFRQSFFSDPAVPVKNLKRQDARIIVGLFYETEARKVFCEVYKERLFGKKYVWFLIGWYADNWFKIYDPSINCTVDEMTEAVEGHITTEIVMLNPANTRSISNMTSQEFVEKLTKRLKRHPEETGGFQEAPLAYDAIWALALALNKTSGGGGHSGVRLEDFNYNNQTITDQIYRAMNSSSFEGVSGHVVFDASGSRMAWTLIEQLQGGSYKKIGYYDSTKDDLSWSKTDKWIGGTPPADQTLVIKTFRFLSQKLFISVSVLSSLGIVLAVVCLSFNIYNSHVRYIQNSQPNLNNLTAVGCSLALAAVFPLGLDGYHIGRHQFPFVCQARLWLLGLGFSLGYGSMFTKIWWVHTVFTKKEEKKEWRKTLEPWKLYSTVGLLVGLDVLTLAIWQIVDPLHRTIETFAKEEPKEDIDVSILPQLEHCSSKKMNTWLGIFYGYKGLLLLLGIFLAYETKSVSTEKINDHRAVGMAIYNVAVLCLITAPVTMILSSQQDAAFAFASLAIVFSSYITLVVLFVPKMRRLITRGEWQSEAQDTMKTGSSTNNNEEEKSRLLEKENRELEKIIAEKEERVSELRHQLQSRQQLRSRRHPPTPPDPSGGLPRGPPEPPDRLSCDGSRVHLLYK
prejunctional GABAB receptors, sequence (H0V741 1-820 partner): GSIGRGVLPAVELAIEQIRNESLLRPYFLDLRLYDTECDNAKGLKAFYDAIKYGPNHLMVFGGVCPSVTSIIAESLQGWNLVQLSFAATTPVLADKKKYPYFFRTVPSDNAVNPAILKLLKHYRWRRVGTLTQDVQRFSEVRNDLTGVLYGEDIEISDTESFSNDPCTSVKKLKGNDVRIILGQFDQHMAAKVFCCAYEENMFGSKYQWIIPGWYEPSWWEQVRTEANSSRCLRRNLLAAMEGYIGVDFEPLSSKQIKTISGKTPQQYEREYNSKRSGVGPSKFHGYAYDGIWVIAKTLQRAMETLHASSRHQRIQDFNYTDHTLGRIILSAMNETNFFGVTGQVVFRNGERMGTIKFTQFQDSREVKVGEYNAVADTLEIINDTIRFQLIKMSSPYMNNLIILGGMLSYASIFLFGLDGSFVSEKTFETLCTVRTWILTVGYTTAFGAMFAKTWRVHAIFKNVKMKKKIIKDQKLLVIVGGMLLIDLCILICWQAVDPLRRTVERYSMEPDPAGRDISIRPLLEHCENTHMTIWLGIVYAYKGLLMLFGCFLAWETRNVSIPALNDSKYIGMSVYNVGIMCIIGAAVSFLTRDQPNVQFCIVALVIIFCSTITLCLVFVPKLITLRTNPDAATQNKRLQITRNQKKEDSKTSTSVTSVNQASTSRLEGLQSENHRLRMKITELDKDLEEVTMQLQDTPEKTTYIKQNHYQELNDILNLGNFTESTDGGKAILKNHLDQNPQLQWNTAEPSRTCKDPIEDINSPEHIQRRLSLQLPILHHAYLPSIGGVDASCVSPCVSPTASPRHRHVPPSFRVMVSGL
Procedure: Male Hartley guinea pigs (450-650 g) are sacrificed by stunning and the trachea removed proximal to the carina and cut into 5 mm segments. The segments are attached to isometric force displacement transducers (Model FT03: Grass Instruments) and suspended in 15 mL organ baths filled with low Ca^2+ (0.6 mmol/L) Tyrode's buffer solution (pH 7.4) supplemented with 5.6 mmol/L glucose, 30 μmol/L choline and 2 μmol/L indomethacin. The solution is bubbled with a mixture of 95% O2 +5% CO2 and maintained at 37° C. The tracheal segments are allowed to equilibrate for 90 minutes under a resting tension of 0.5 g.
Platinum electrodes are placed on either side of the trachea and electrical field stimulation (EFS) (20 V, 8 Hz, 0.5 ms pulse for 5 s) was generated each minute from an electrical stimulator (Model S-88: Grass Instruments) and delivered to the electrodes through a stimulus distributor (Buxco Electronics). The stimulation parameters are chosen as appropriate for producing cholinergic contractions of the trachea that are sensitive to the inhibitory effects of compounds acting at prejunctional GABAB receptors. Contractile responses were recorded on a polygraph (Harvard Apparatus). The compound to be tested is added to the bath 10 min. before addition of 30 μmol/L baclofen. The effect of baclofen treatment in the absence or in the presence of the compound to be tested is expressed as a percent inhibition of EFS-induced contractions.

GABAB = settings: literature, in words; cited from earlier work
[2] = tested on: Respiratory Depressant Effect of Baclofen; assay: Inhibition of Respiratory Depressant Effect of Baclofen; assay type: in vivo, guinea pig; settings: baclofen alone (3 mg/kg, sc)
Procedure: (§1) Animal Model for Respiratory Depression:
Place unanesthetized guinea pigs in a head-out plethysmograph and expose to a CO2 enriched gas mixture (10% CO2, 21% O2, 69% N2) for 10 min., (see Danko, et al., J. Pharm. Methods, 19, 165-173 (1988)). Plethysmograph pressure is detected with a transducer connected to a chart recorder. Minute ventilation is calculated as the product of tidal volume and respiratory frequency. The compound to be tested is administered orally, subcutaneously (sc), intraperitoneally (ip) or via an intracerebroventricular route (icv). Baclofen (3 mg/kg, sc) was given 30 min before exposure to the CO2 enriched gas. […] A 40 or 30 min. preteratment is used for the subcutaneous and intraperitoneal routes, respectively. The vehicle for oral, sc or ip administration is saline. For icv administration, single icv cannulae are placed in the lateral ventricle of anesthetized guinea pigs, (see McLeod, et al., Eur. J. Pharmacol., 209, 141-142 (1988)). The animals are allowed to recover approximately one week prior to use for ventilation experiments. The vehicle for icv administration is artificial cerebrospinal fluid (CSF).

[3] = tested on: Respiratory Depressant Effect of Baclofen; assay: Reversal of the Respiratory Depressant Effect of Baclofen via icv Administration; assay type: in vivo, guinea pig; settings: baclofen plus vehicle
Procedure: as §1
Place unanesthetized guinea pigs in a head-out plethysmograph and expose to a CO2 enriched gas mixture (10% CO2, 21% O2, 69% N2) for 10 min., (see Danko, et al., J. Pharm. Methods, 19, 165-173 (1988)). Plethysmograph pressure is detected with a transducer connected to a chart recorder. Minute ventilation is calculated as the product of tidal volume and respiratory frequency. The compound to be tested is administered orally, subcutaneously (sc), intraperitoneally (ip) or via an intracerebroventricular route (icv). Baclofen (3 mg/kg, sc) was given 30 min before exposure to the CO2 enriched gas. When given by the oral route, the compounds is administered 1, 3, 5 or 7 h before exposure to CO2 enriched gas. A 40 or 30 min. preteratment is used for the subcutaneous and intraperitoneal routes, respectively. The vehicle for oral, sc or ip administration is saline. For icv administration, single icv cannulae are placed in the lateral ventricle of anesthetized guinea pigs, (see McLeod, et al., Eur. J. Pharmacol., 209, 141-142 (1988)). The animals are allowed to recover approximately one week prior to use for ventilation experiments. The vehicle for icv administration is artificial cerebrospinal fluid (CSF).

[4] = literature (Olpe, et al), in words; cited from earlier work
[5] = 5 nM [3H]GABA, rat brain synaptosomes, 20° C., 30 min

T1 sequence (Q9Z0U4 17-960 limits assumed): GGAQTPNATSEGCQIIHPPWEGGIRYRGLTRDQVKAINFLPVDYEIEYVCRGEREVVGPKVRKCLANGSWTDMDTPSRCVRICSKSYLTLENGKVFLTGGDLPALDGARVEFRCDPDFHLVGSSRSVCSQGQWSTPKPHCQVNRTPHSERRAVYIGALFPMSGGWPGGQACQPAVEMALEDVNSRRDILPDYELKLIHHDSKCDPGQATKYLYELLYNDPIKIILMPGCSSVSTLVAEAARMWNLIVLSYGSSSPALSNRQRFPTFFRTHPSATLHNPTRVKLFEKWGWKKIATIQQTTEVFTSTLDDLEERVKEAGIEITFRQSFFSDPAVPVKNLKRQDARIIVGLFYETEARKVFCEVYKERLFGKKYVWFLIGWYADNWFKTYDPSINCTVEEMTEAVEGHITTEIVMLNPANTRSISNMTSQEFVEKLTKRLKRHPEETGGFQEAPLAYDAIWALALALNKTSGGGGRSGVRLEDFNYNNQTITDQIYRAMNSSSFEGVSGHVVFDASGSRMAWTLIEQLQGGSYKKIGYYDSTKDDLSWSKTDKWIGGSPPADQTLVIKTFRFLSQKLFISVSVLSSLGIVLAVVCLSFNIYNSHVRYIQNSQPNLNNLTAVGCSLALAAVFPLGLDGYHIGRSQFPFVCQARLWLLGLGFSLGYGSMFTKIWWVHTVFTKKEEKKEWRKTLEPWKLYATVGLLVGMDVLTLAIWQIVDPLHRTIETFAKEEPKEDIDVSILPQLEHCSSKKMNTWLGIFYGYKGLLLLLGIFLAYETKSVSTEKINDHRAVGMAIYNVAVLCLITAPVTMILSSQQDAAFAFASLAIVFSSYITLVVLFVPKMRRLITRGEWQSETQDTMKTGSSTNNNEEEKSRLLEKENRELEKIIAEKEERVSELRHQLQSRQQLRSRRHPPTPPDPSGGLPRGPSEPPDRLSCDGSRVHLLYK
T1 sequence (O88871 41-940 partner): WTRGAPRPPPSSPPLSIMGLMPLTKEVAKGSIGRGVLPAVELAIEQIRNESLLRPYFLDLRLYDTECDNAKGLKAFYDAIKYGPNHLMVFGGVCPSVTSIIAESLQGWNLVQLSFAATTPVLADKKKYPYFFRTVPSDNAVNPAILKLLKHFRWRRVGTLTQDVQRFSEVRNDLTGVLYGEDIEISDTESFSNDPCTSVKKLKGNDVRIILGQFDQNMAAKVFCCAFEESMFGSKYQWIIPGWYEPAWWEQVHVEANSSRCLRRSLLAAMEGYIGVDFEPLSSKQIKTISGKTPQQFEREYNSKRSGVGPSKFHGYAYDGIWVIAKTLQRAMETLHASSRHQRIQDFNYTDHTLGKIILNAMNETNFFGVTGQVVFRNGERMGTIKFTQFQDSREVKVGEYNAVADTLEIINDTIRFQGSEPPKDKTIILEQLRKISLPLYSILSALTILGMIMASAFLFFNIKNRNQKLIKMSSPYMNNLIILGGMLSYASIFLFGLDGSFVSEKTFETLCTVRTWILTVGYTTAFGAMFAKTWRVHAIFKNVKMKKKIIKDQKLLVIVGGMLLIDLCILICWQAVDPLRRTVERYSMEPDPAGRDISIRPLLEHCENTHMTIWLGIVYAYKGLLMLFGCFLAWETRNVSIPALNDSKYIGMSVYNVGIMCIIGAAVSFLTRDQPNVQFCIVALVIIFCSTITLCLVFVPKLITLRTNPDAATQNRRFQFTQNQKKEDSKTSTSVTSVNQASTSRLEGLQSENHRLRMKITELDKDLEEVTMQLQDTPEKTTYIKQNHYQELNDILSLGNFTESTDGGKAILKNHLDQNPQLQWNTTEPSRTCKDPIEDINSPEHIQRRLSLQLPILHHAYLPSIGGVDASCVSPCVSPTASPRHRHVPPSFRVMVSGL

Row | IC50 (GABAB receptors; [5]) [µM] | inhibition at 100 µM ([1]; 100 μM) [%] | inhibition at 300 µM [1] [%] | SMILES | further results
1 | 50 | 59 | 46 | O=C(O)CC1CNCCO1 (stereo not drawn) | –
2 | > 100 | 21 | – | CC1CNCC(CC(=O)O)S1 (stereo not drawn) | –
3 | 100 | 50 | – | CC[C@@H]1CO[C@H](CC(=O)O)CN1 | –
4 | > 100 | 17 | – | CC[C@H]1CO[C@H](CC(=O)O)CN1 | –
5 | 60 | 55 | – | C[C@H]1CS[C@@H](CC(=O)O)CN1 (relative stereo) [Example 13B] | –
6 | 100 ± 40 | 50 | – | CC[C@]1(CO)CO[C@@H](CC(=O)O)CN1 (relative stereo) [Example 18] | –
7 | 19 ± 10 | 90 | 99 | CC[C@@]1(CO)CO[C@@H](CC(=O)O)CN1 (relative stereo) [Example 19] | –
8 | 3.8 | – | – | C[C@]1(CO)CO[C@@H](CC(=O)O)CN1 (relative stereo) [Example 20] | inhibition at 30 µM ([1]; 30 μM): 24%
9 | 37 ± 12 | 76 | – | O=C(O)CC1CNC2(CC2)CO1 (stereo not drawn) [Example 9A] | –
10 | 10 | 95 | 97 | O=C(O)CC1CNC2(CCCC2)CO1 (stereo not drawn) [Example 9] | –
11 | 14 | 82 | 95 | CC[C@@H]1CO[C@@H](CC(=O)O)CN1 [Example 11] | –
12 | – | 44 | – | O=C(O)CC1CNCCS1 (stereo not drawn) [Example 16] | IC50 (GABAB receptors; unit inferred): > 100 µM

The next lines start with the compound.

Row | SMILES | IC50 (GABAB receptors; [5]) [µM] | inhibition at 100 µM ([1]; 100 μM) [%] | inhibition at 300 µM [1] [%] | further results
13 | CC1(C)COC(CP(C)(=O)O)CN1 (stereo not drawn) | 2 | 100 | – | IC30 [1]: 1.9 µM
14 | CP(=O)(O)CC1CNC2(CCCC2)CO1 (stereo not drawn) | 3 | – | – | IC30 [1]: 3.3 µM
15 | C[C@@H]1CS[C@@H](CC(=O)O)CN1 (relative stereo) [Example 13C] | 20 | 81 | 88 | –
16 | C[C@@H]1CO[C@@H](CC(=O)O)CN1 (relative stereo) [Example 14A] | 30 | 63 | 75 | –
17 | C[C@H]1CO[C@@H](CC(=O)O)CN1 (relative stereo) [Example 14] | 20 | 74 | 95 | –
18 | C[C@@]1(CO)CO[C@@H](CC(=O)O)CN1 (relative stereo) [Example 21] | – | – | – | IC30 [1]: 0.85 µM
19 | CC1(C)COC(CC(=O)O)CN1 (single isomer, unassigned) [Example 6B] | > 100 | – | 42 | In Vitro % inhibition ([1]; 100 μM): 8%
20 | NCC(O)(CS(=O)(=O)O)c1ccc(Cl)cc1 (stereo not drawn) [2-hydroxy saclofen] | – | – | – | GABAB receptor affinity (GABAB): low affinity
21 | NCC(CC(=O)O)c1ccc(Cl)cc1 (stereo not drawn) [Baclofen, reference compound] | – | – | – | Inhibition of ventilation [2]: 44-60%; Inhibition of ventilation [3]: 82 ± 5%
22 | CCOC(OCC)P(=O)(O)CCCN [CGP 35348, 3-aminopropyl(diethoxymethyl)phosphinic acid] | – | – | – | GABAB receptor affinity (GABAB): low receptor affinity (comparable to 2-hydroxy saclofen); Penetration of the blood/brain barrier [4]: can penetrate the blood/brain barrier
23 | CC1(C)COC(CC(=O)O)CN1 (stereo not drawn) [Example 2] | 6 | 96 | 100 | IC30 [1]: 1.5 µM
24 | CP(=O)(O)CC1CN(Cc2ccccc2)CCO1 (stereo not drawn) [Example 23] | > 100 | 31 | – | –
25 | CP(=O)(O)CC1CNCCO1 (stereo not drawn) [Example 24] | 6 | 100 | 98 | –
